{
  "source": "patent US20240207282A1",
  "about": "“METHOD OF INCREASING CHAPERONE MEDIATED AUTOPHAGY BY STABILIZING THE INTERACTION OF RETINOIC ACID RECEPTOR-ALPHA AND AN INHIBITOR” (ALBERT EINSTEIN COLLEGE OF MEDICINE, priority 2021, published 2024)",
  "key": {"[1]": {"molecular_target": "T1, human RARα LBD / NCoR1 peptide (Homo sapiens, UniProt P10276)", "T1 construct": "human RARα (residues 176-421); His tag; made in house; host or cells: Escherichia coli BL21(DE3)", "T1 sequence (P10276 176-421, other chains not shown)": "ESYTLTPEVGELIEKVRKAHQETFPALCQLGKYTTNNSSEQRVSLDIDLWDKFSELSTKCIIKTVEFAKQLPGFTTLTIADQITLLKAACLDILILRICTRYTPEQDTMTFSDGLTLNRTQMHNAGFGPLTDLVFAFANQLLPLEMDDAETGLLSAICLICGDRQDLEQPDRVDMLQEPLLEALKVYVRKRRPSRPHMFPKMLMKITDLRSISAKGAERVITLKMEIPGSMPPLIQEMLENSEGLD", "experiment": "Fluorescence polarization binding assay, RARα LBD with FITC-NCoR1 peptide", "details": "10 μM compound", "method": "The histidine-tagged ligand binding domain (LBD) of human RARα (residues 176-421) was expressed in Escherichia colic BL21(DE3). Cells were grown at 37° C. in LB medium supplemented with 50 μg/mL kanamycin until OD600 reached about 0.8. Expression of T7 polymerase was induced by addition of isopropyl-b-d-thiogalactoside (IPTG) to a final concentration of 0.8 mM and cells were incubated at 20° C. overnight. Cell cultures were harvested by centrifugation at 8,000×g for 15 mins. The cell pellet from 1 liter of RARα LBD was resuspended in 50 mL lysis buffer (20 mM Tris-HCl pH 8, 500 mM NaCl, 25 mM imidazole) supplemented with ONE COMPLETE, an EDTA-free protease inhibitor tablet (Roche Applied Science). The suspension was lysed using a high-pressure homogenizer and centrifuged at 35,000×g at 4° C. for 45 minutes. […]\nThe fluorescein-tagged peptide of NCoR1, FITC-Ahx-RLITLADHICQIITQDFAR (FITC-NCoR1) was provided by Genscript at purity>95%. Fluorescence polarization assays (FPA) were performed using established procedures. […] Fluorescence polarization was measured at 30 min on a F200 PRO microplate reader (TECAN) with the excitation wavelength set at 470 nm and emission measured at 530 nm. EC50 values were calculated by nonlinear regression analysis of competitive binding curves using Graphpad Prism software."}, "KFERQ-Dendra mice": {"tested_on": "KFERQ-Dendra mice", "experiment": "CMA activation in vivo in KFERQ-Dendra mice", "design": "species or system mouse", "details": "i.p. 30 mg/kg bw daily, three days", "text": "Animals: C57BL/6J mice wild-type (WT) and homozygous for the Pde6 mutation (rd10 mouse model of retinal degeneration) were obtained from The Jackson Laboratory. C57BL/6 KFERQ-Dendra mice were generated by back-crossing FVB KFERQ-Dendra mice with wild-type C57BL/6 mice for 8 generations. Both male and female animals were used in this study in equal distribution groups. However, results from both sexes were pooled, because of absence of significant differences in any of the parameters analyzed after statistical analysis with a mixed model of two-way ANOVA sex and treatment as independent variables and the corresponding measure as dependent variable. […]\nCMA activity: Cells were transduced with lentivirus carrying the KFERQ-PS-Dendra reporter as before. […] Images were quantified using the manufacturer's software in a minimum of 1,200 cells in 9 independent fields per well. […] To avoid con-funding effects for drug-induced changes in cell volume or adherence to the plate that could bring a fraction of the cells per field outside of focus, we set a threshold to count only cells that have at least 1/10 of the average number of […] detected in the untreated wells for each cell type (3-4 puncta/cell in the case of NIH3T3 and N2a cells and 5 puncta/cell in primary human fibroblasts). […] Slices were mounted in DAPI-Fluoromount-G to highlight the cell nucleus and allow quantification of puncta per cell. […]"}},
  "data": [
    {"smiles": "Clc1ccc2c(c1)OCC(c1ccc(-c3ccccc3)cc1)=N2", "note": "[CA39]", "values": [
      {"measurement": "NCoR1 peptide binding to RARα", "setting": "[1]", "result": "enhanced NCoR1 peptide binding to RARα"},
      {"measurement": "CMA activation in vivo", "setting": "KFERQ-Dendra mice", "result": "activate CMA with comparable potency in vivo both in peripheral blood cells and in multiple organs"}
    ]},
    {"smiles": "CC(=O)Nc1ccc(C2=Nc3ccc(Cl)cc3OC2)cc1", "note": "[CA77]", "values": [
      {"measurement": "NCoR1 peptide binding to RARα", "setting": "[1]", "result": "enhanced NCoR1 peptide binding to RARα"},
      {"measurement": "CMA activation in vivo", "setting": "KFERQ-Dendra mice", "result": "activate CMA with comparable potency in vivo both in peripheral blood cells and in multiple organs"}
    ]}
  ]
}
